Patent US20260132127A1, “NOVEL SPIRO COMPOUND” (MITSUBISHI TANABE PHARMA CORPORATION, priority 2021, published 2026)

Molecular target: T1, human TRH-DE (Homo sapiens, UniProt Q9UKU6)
T1 construct: expressed in transfected cells; host or cells: Expi 293 cells (transient expression), membrane fraction
T1 sequence (Q9UKU6 1-1069): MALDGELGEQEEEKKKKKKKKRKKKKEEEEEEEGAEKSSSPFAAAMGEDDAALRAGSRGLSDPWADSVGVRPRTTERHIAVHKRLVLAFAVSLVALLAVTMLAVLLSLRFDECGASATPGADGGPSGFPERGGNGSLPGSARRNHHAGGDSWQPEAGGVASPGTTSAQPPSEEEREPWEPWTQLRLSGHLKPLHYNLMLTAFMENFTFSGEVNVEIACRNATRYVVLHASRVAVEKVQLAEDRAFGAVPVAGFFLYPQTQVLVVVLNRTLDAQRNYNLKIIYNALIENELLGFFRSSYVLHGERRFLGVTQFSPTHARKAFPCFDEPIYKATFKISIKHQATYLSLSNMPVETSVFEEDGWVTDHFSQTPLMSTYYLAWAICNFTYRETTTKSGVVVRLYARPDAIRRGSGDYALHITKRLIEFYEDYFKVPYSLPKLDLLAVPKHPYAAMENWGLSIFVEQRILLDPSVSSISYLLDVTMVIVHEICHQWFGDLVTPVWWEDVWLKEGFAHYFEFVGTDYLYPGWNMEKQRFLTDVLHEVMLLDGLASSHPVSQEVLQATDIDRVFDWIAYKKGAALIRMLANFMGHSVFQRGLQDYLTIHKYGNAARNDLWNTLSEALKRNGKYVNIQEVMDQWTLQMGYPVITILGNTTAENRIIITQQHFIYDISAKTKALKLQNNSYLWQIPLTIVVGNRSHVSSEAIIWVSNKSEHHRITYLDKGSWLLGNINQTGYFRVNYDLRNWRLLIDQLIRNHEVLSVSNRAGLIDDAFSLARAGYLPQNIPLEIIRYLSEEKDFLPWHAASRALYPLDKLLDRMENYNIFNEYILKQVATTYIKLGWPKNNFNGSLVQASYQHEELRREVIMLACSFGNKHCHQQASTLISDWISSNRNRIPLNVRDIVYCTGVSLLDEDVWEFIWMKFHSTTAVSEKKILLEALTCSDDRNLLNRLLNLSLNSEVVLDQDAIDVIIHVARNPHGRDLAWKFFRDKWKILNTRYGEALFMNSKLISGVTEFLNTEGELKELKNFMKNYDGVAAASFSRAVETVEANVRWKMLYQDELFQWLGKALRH
Assay: TRH-DE inhibition test (RapidFire MS measurement of product Cyclo (His-Pro))
Assay type: biochemical
Details: membrane fraction of Expi 293 cells expressing human TRH-DE; 10 μM TRH substrate; room temperature, 2 hours; 16-point concentration test
How it was run: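 Membrane fraction from Expi 293 cells transiently expressing human TRH-DE, at 4 μg/ml in phosphate buffer pH 7.4 with 200 μM bacitracin, reacted with compound and 10 μM substrate for 2 h at room temperature. Cyclo(His-Pro) measured by RapidFire MS against an isotope internal standard. IC50 from 16-point curves.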

SMILES | IC50
Cc1nc2c(cc1F)C(=O)N(C1CC3(C1)CN(S(=O)(=O)c1ccccc1F)C3)[C@H](C)CO2 [Example 317] | 3 nM
Cc1ncc2c(n1)OC[C@@H](C)N(C1CC3(C1)CN(S(=O)(=O)c1ccccc1F)C3)C2=O [Example 318] | 9 nM
Cc1onc2c1OC[C@@H](C)N(C1CC3(C1)CN(S(=O)(=O)c1ccccc1F)C3)C2=O [Example 324] | 37 nM
C[C@@H]1COc2cc(C#N)cnc2C(=O)N1C1CC2(C1)CN(S(=O)(=O)c1ccccc1F)C2 [Example 332, (3R)-4-[2-(2-fluorophenyl)sulfonyl-2-azaspiro[3.3]heptan-6-yl]-3-methyl-5-oxo-2,3-dihydropyrido[2,3-f][1,4]oxazepin-8-carbonitrile] | 4 nM
C[C@@H]1COc2ncc(C#N)cc2C(=O)N1C1CC2(C1)CN(S(=O)(=O)c1ccccc1F)C2 [Example 333, (3R)-4-[2-(2-fluorophenyl)sulfonyl-2-azaspiro[3.3]heptan-6-yl]-3-methyl-5-oxo-2,3-dihydropyrido[3,2-f][1,4]oxazepin-7-carbonitrile] | 18 nM
Cc1nc2c(cc1C#N)C(=O)N(C1CC3(C1)CN(S(=O)(=O)c1ccccc1F)C3)[C@H](C)CO2 [Example 334] | 18 nM
CC(=O)c1cnc2c(c1)OC[C@@H](C)N(C1CC3(C1)CN(S(=O)(=O)c1ccccc1F)C3)C2=O [Example 336] | 2 nM
C[C@@H]1COc2cc(C(F)(F)F)cnc2C(=O)N1C1CC2(C1)CN(S(=O)(=O)c1ccccc1F)C2 [Example 337] | 2 nM
C[C@@H]1CNc2cccnc2C(=O)N1C1CC2(C1)CN(S(=O)(=O)c1ccccc1F)C2 [Example 338, (3R)-4-[2-(2-fluorophenyl)sulfonyl-2-azaspiro[3.3]heptan-6-yl]-3-methyl-2,3-dihydro-1H-pyrido[3,2-e][1,4]diazepin-5-one] | 4 nM
CC1CCc2[nH]c(=O)ccc2C(=O)N1C1CC2(C1)CN(S(=O)(=O)c1ccccc1F)C2 (centres unmarked) [Example 339, 6-[2-(2-fluorophenyl)sulfonyl-2-azaspiro[3.3]heptan-6-yl]-7-methyl-1,7,8,9-tetrahydropyrido[3,2-c]azepin-2,5-dione] | 78 nM
C[C@@H]1COc2nc(C(F)F)cnc2C(=O)N1C1CC2(C1)CN(S(=O)(=O)c1ccccc1F)C2 [Example 341, (7R)-3-(difluoromethyl)-8-[2-(2-fluorophenyl)sulfonyl-2-azaspiro[3.3]heptan-6-yl]-7-methyl-6,7-dihydropyrazino[2,3-f][1,4]oxazepin-9-one] | 5 nM
CC1Cc2cc(C(F)(F)F)ncc2C(=O)N1C1CC2(C1)CN(S(=O)(=O)c1ccccc1F)C2 (centres unmarked) [Example 343, 2-[2-(2-fluorophenyl)sulfonyl-2-azaspiro[3.3]heptan-6-yl]-3-methyl-6-(trifluoromethyl)-3,4-dihydro-2,7-naphthyridin-1-one] | 18 nM
CC1(C)Oc2cc(Cl)ncc2C(=O)N1C1CC2(C1)CN(S(=O)(=O)c1ccccc1F)C2 [Example 344, 7-chloro-3-[2-(2-fluorophenyl)sulfonyl-2-azaspiro[3.3]heptan-6-yl]-2,2-dimethyl-pyrido[3,4-e][1,3]oxazin-4-one] | 75 nM
C[C@@H]1Cn2c(ccc2C(F)(F)F)C(=O)N1C1CC2(C1)CN(S(=O)(=O)c1ccccc1F)C2 [Example 345, (3R)-2-[2-(2-fluorophenyl)sulfonyl-2-azaspiro[3.3]heptan-6-yl]-3-methyl-6-(trifluoromethyl)-3,4-dihydropyrrolo[1,2-a]pyrazin-1-one] | 167 nM
C[C@@H]1CNc2nc(C(F)(F)F)ccc2C(=O)N1C1CC2(C1)CN(S(=O)(=O)c1ccccc1F)C2 [Example 346, (3R)-4-[2-(2-fluorophenyl)sulfonyl-2-azaspiro[3.3]heptan-6-yl]-3-methyl-8-(trifluoromethyl)-2,3-dihydro-1H-pyrido[2,3-e][1,4]diazepin-5-one] | 2 nM
Cc1nc2c(s1)C(C)N(C1CC3(C1)CN(S(=O)(=O)c1ccccc1F)C3)C2=O (centres unmarked) [Example 347] | 185 nM
CCc1ncc2c(n1)OC[C@@H](C)N(C1CC3(C1)CN(S(=O)(=O)c1ccccc1F)C3)C2=O [Example 368] | 13 nM
CC(C)Oc1ncc2c(n1)OC[C@@H](C)N(C1CC3(C1)CN(S(=O)(=O)c1ccccc1F)C3)C2=O [Example 369, (7R)-6-[2-(2-fluorophenyl)sulfonyl-2-azaspiro[3.3]heptan-6-yl]-7-methyl-2-propan-2-yloxy-7,8-dihydropyrimid[5,4-f][1,4]oxazepin-5-one] | 8 nM
COc1ncc2c(n1)OC[C@@H](C)N(C1CC3(C1)CN(S(=O)(=O)c1ccccc1F)C3)C2=O [Example 370] | 8 nM
C[C@@H]1COc2nc(OC3CCC3)ncc2C(=O)N1C1CC2(C1)CN(S(=O)(=O)c1ccccc1F)C2 [Example 371] | 5 nM
C[C@@H]1COc2nc(OC3CCCC3)ncc2C(=O)N1C1CC2(C1)CN(S(=O)(=O)c1ccccc1F)C2 [Example 372] | 4 nM
CCOc1ncc2c(n1)OC[C@@H](C)N(C1CC3(C1)CN(S(=O)(=O)c1ccccc1F)C3)C2=O [Example 374] | 8 nM
C[C@@H]1COc2nc(OC3CCOCC3)ncc2C(=O)N1C1CC2(C1)CN(S(=O)(=O)c1ccccc1F)C2 [Example 375] | 11 nM
C[C@@H]1COc2nc(O[C@@H]3CCOC3)ncc2C(=O)N1C1CC2(C1)CN(S(=O)(=O)c1ccccc1F)C2 [Example 376] | 21 nM

The remaining lines, values ahead:

IC50 | SMILES
3 nM | C[C@@H]1COc2ncc(C3CC3)cc2C(=O)N1C1CC2(C1)CN(S(=O)(=O)c1ccccc1F)C2 [Example 315]
2 nM | C[C@@H]1COc2nc(C3CC3)ccc2C(=O)N1C1CC2(C1)CN(S(=O)(=O)c1ccccc1F)C2 [Example 316]
22 nM | C[C@@H]1CCn2ncc(C3CC3)c2C(=O)N1C1CC2(C1)CN(S(=O)(=O)c1ccccc1F)C2 [Example 319]
72 nM | C[C@@H]1CCn2nc(F)c(C3CC3)c2C(=O)N1C1CC2(C1)CN(S(=O)(=O)c1ccccc1F)C2 [Example 320]
74 nM | C[C@@H]1COc2nn(C)c(C3CC3)c2C(=O)N1C1CC2(C1)CN(S(=O)(=O)c1ccccc1F)C2 [Example 321]
7 nM | C[C@@H]1CCn2c(cnc2C2CC2)C(=O)N1C1CC2(C1)CN(S(=O)(=O)c1ccccc1F)C2 [Example 322]
103 nM | Cc1nc(C2CC2)n2c1C(=O)N(C1CC3(C1)CN(S(=O)(=O)c1ccccc1F)C3)[C@H](C)CC2 [Example 323]
17 nM | C[C@@H]1COc2c(noc2C2CC2)C(=O)N1C1CC2(C1)CN(S(=O)(=O)c1ccccc1F)C2 [Example 325]
4 nM | C[C@@H]1Cn2ncc(C3CC3)c2C(=O)N1C1CC2(C1)CN(S(=O)(=O)c1ccccc1F)C2 [Example 326]
6 nM | C[C@@H]1Cn2nc(F)c(C3CC3)c2C(=O)N1C1CC2(C1)CN(S(=O)(=O)c1ccccc1F)C2 [Example 327]
14 nM | C[C@@H]1Cn2cnc(C3CC3)c2C(=O)N1C1CC2(C1)CN(S(=O)(=O)c1ccccc1F)C2 [Example 328]
67 nM | Cc1nc(C2CC2)c2n1C[C@@H](C)N(C1CC3(C1)CN(S(=O)(=O)c1ccccc1F)C3)C2=O [Example 329]
19 nM | C[C@@H]1Cn2cc(C3CC3)nc2C(=O)N1C1CC2(C1)CN(S(=O)(=O)c1ccccc1F)C2 [Example 330]
3 nM | C[C@@H]1COc2nc(C3CC3)ncc2C(=O)N1C1CC2(C1)CN(S(=O)(=O)c1ccccc1F)C2 [Example 331, (7R)-2-cyclopropyl-6-[2-(2-fluorophenyl)sulfonyl-2-azaspiro[3.3]heptan-6-yl]-7-methyl-7,8-dihydropyrimido[5,4-f][1,4]oxazepin-5-one]
50 nM | C[C@@H]1CCn2c(C3CC3)nc(C(F)F)c2C(=O)N1C1CC2(C1)CN(S(=O)(=O)c1ccccc1F)C2 [Example 342, (7R)-3-cyclopropyl-1-(difluoromethyl)-8-[2-(2-fluorophenyl)sulfonyl-2-azaspiro[3.3]heptan-6-yl]-7-methyl-6,7-dihydro-5H-imidazo[1,5-a][1,4]diazepin-9-one]
8 nM | C[C@@H]1COc2nc(C3CCC3)ncc2C(=O)N1C1CC2(C1)CN(S(=O)(=O)c1ccccc1F)C2 [Example 367]
5 nM | C[C@@H]1COc2nc(OC3CC3)ncc2C(=O)N1C1CC2(C1)CN(S(=O)(=O)c1ccccc1F)C2 [Example 373]
